Assays:
[1] = system: interferon (α); assay: Cytokine Induction in Human Cells: interferon (α) by ELISA; assay type: cell-based; details: PBMC; human PBMCs, incubated 18 to 24 hours, lowest concentration found to induce interferon
Excerpt: (§1) An in vitro human blood cell system was used to assess cytokine induction by compounds of the invention. Activity is based on the measurement of interferon and tumor necrosis factor (α) (IFN and TNF, respectively) secreted into culture media as described by Testerman et. al. In “Cytokine Induction by the Immunomodulators Imiquimod and S-27609”, Journal of Leukocyte Biology, 58, 365–372 (September, 1995).
(§2) Whole blood is collected by venipuncture into EDTA vacutainer tubes from healthy human donors. Peripheral blood mononuclear cells (PBMCs) are separated from whole blood by density gradient centrifugation using Histopaque®-1077 (Sigma Chemicals, St. Louis, Mo.). The PBMCs are suspended at 3–4×10^6 cells/mL in RPMI 1640 medium containing 10% fetal bovine serum, 2 mM L-glutamine and 1% penicillin/streptomycin solution (RPMI complete). The PBMC suspension is added to 48 well flat bottom sterile tissue culture plates (Costar, Cambridge, Mass. or Becton Dickinson Labware, Lincoln Park, N.J.) containing an equal volume of RPMI complete media containing test compound.
(§3) The compounds are solubilized in dimethyl sulfoxide (DMSO). The DMSO concentration should not exceed a final concentration of 1% for addition to the culture wells.
(§4) The solution of test compound is added at 60 μM to the first well containing RPMI complete and serial (three fold or ten fold) dilutions are made. The PBMC suspension is then added to the wells in an equal volume, bringing the test compound concentrations to the desired range. The final concentration of PBMC suspension is 1.5–2×10^6 cells/mL. The plates are covered with sterile plastic lids, mixed gently and then incubated for 18 to 24 hours at 37° C. in a 5% carbon dioxide atmosphere.
(§5) Following incubation the plates are centrifuged for 5–10 minutes at 1000 rpm (˜200×g) at 4° C. The cell culture supernatant is removed with a sterile polypropylene pipet and transferred to sterile polypropylene tubes. Samples are maintained at −30 to −70° C. until analysis. The samples are analyzed for interferon (α) and tumor necrosis factor (α) by ELISA
Interferon (α) concentration is determined by ELISA using a Human Multi-Species kit from PBL Biomedical Laboratories, New Brunswick, N.J.
(§6) The table below lists the lowest concentration found to induce interferon and the lowest concentration found to induce tumor necrosis factor for each compound.

[2] = system: tumor necrosis factor (α); assay: Cytokine Induction in Human Cells: tumor necrosis factor (α) by ELISA; assay type: cell-based; details: PBMC; human PBMCs, incubated 18 to 24 hours, lowest concentration found to induce tumor necrosis factor
Excerpt: as §1, §2, §3, §4, §5
Tumor necrosis factor (α) (TNF) concentration is determined using ELISA kits available from Genzyme, Cambridge, Mass.; R&D Systems, Minneapolis, Minn.; or Pharmingen, San Diego, Calif.
as §6

Row | SMILES | minimal effective concentration [1] | minimal effective concentration [2]
1 | Nc1nc2ccccc2c2c1ncn2CCCCNC(=O)OCC1c2ccccc2-c2ccccc21 [Example 4, 9H-9-Fluorenylmethyl N-[4-(4-amino-1H-imidazo[4,5-c]quinolin-1-yl)butyl]carbamate] | > 30 µM | > 30 µM
2 | Nc1nc2ccccc2c2c1ncn2CCCCNC(=O)Nc1ccccc1 [Example 16] | 1.11 µM | 10 µM
3 | Nc1nc2ccccc2c2c1ncn2CCCCNC(=O)Nc1ccc([N+](=O)[O-])cc1 [Example 17] | > 30 µM | 30 µM
4 | CC(C)NC(=O)NCCCCn1cnc2c(N)nc3ccccc3c21 [Example 19] | 1.11 µM | 30 µM
5 | CC(C)(C)NC(=O)NCCCCn1cnc2c(N)nc3ccccc3c21 [Example 20] | 1.11 µM | 30 µM
6 | CCCCOc1ccc(NC(=O)NCCCCn2cnc3c(N)nc4ccccc4c32)cc1 [Example 21] | > 30 µM | > 30 µM
7 | CCCCCCCNC(=O)NCCCCn1cnc2c(N)nc3ccccc3c21 [Example 22] | > 30 µM | 10 µM
8 | Nc1nc2ccccc2c2c1ncn2CCCCNC(=O)Nc1cc(C(F)(F)F)cc(C(F)(F)F)c1 [Example 23] | > 30 µM | 10 µM
9 | CC(C)c1cccc(C(C)C)c1NC(=O)NCCCCn1cnc2c(N)nc3ccccc3c21 [Example 24] | > 30 µM | > 30 µM
10 | CCCCCCNC(=O)NCCCCn1cnc2c(N)nc3ccccc3c21 [Example 25] | 3.33 µM | > 30 µM
11 | CCCNC(=O)NCCCCn1cnc2c(N)nc3ccccc3c21 [Example 26] | 10 µM | > 30 µM
12 | CC(C)c1ccc(NC(=O)NCCCCn2cnc3c(N)nc4ccccc4c32)cc1 [Example 27] | > 30 µM | > 30 µM
13 | N#Cc1cccc(NC(=O)NCCCCn2cnc3c(N)nc4ccccc4c32)c1 [Example 28] | 1.11 µM | 3.33 µM
14 | Nc1nc2ccccc2c2c1ncn2CCCCNC(=O)Nc1cc(Cl)cc(Cl)c1 [Example 29] | > 30 µM | 10 µM
15 | CCCCCNC(=O)NCCCCn1cnc2c(N)nc3ccccc3c21 [Example 30] | 3.33 µM | 30 µM
16 | Nc1nc2ccccc2c2c1ncn2CCCCNC(=O)Nc1cc(C(F)(F)F)ccc1Cl [Example 31] | > 30 µM | 10 µM
17 | CC(C)(C)CC(C)(C)NC(=O)NCCCCn1cnc2c(N)nc3ccccc3c21 [Example 32] | 10 µM | 10 µM
18 | Nc1nc2ccccc2c2c1ncn2CCCCNC(=O)Nc1ccc(Oc2ccccc2)cc1 [Example 33] | > 30 µM | > 30 µM
19 | CCCCc1ccc(NC(=O)NCCCCn2cnc3c(N)nc4ccccc4c32)cc1 [Example 34] | > 30 µM | > 30 µM
20 | Nc1nc2ccccc2c2c1ncn2CCCCNC(=O)NCc1ccccc1 [Example 35] | 1.11 µM | 10 µM
21 | Nc1nc2ccccc2c2c1ncn2CCCCNC(=O)NCCc1ccccc1 [Example 36] | 1.11 µM | 10 µM
22 | COc1ccc(NC(=O)NCCCCn2cnc3c(N)nc4ccccc4c32)cc1 [Example 37] | 1.11 µM | 10 µM
23 | Cc1cc(C)c(NC(=O)NCCCCn2cnc3c(N)nc4ccccc4c32)cc1C [Example 38] | > 30 µM | > 30 µM
24 | Nc1nc2ccccc2c2c1ncn2CCCCNC(=O)NC1CCCCC1 [Example 39] | 1.11 µM | 10 µM
25 | CCc1ccccc1NC(=O)NCCCCn1cnc2c(N)nc3ccccc3c21 [Example 40] | 0.37 µM | 3.33 µM
26 | Nc1nc2ccccc2c2c1ncn2CCCCNC(=O)Nc1ccccc1[N+](=O)[O-] [Example 41] | 1.11 µM | 10 µM

Row | SMILES | minimal effective concentration [1] | minimal effective concentration [2]
27 | Nc1nc2ccccc2c2c1ncn2CCCCNC(=O)Nc1ccc(Br)cc1 [Example 42] | > 30 µM | > 30 µM
28 | COC(=O)c1ccccc1NC(=O)NCCCCn1cnc2c(N)nc3ccccc3c21 [Example 43] | > 30 µM | > 30 µM
29 | CCOc1ccccc1NC(=O)NCCCCn1cnc2c(N)nc3ccccc3c21 [Example 44] | 1.11 µM | 10 µM
30 | Nc1nc2ccccc2c2c1ncn2CCCCNC(=O)Nc1ccccc1-c1ccccc1 [Example 45] | 3.33 µM | > 30 µM
31 | Nc1nc2ccccc2c2c1ncn2CCCCNC(=O)Nc1ccccc1C(F)(F)F [Example 46] | 1.11 µM | 3.33 µM
32 | CSc1ccc(NC(=O)NCCCCn2cnc3c(N)nc4ccccc4c32)cc1 [Example 47] | 3.33 µM | 10 µM
33 | Cc1ccccc1NC(=O)NCCCCn1cnc2c(N)nc3ccccc3c21 [Example 48] | 0.37 µM | 3.33 µM
34 | CSc1cccc(NC(=O)NCCCCn2cnc3c(N)nc4ccccc4c32)c1 [Example 49] | 3.33 µM | 3.33 µM
35 | CCCCOC(=O)c1ccc(NC(=O)NCCCCn2cnc3c(N)nc4ccccc4c32)cc1 [Example 50] | > 30 µM | > 30 µM
36 | CC(=O)c1ccc(NC(=O)NCCCCn2cnc3c(N)nc4ccccc4c32)cc1 [Example 51] | 30 µM | 30 µM
37 | CCCCNC(=O)NCCCCn1cnc2c(N)nc3ccccc3c21 [Example 52] | 1.11 µM | 10 µM
38 | CCCCc1nc2c(N)nc3ccccc3c2n1CCNC(=O)NC12CC3CC(CC(C3)C1)C2 [Example 53] | > 10 µM | 10 µM
39 | CCCCc1nc2c(N)nc3ccccc3c2n1CCNC(=O)Nc1ccc(Oc2ccccc2)cc1 [Example 54] | > 10 µM | 10 µM
40 | CCCCc1nc2c(N)nc3ccccc3c2n1CCNC(=O)NCc1ccccc1 [Example 55] | 1 µM | 1 µM
41 | CCCCc1nc2c(N)nc3ccccc3c2n1CCNC(=O)NCCC [Example 56] | 1 µM | 1 µM
42 | CCCNC(=O)NCCn1c(COCC)nc2c(N)nc3ccccc3c21 [Example 67] | 1 µM | 10 µM
43 | CCCCc1nc2c(N)nc3ccccc3c2n1CCCCNC(=O)NCCC [Example 71] | 0.001 µM | 1 µM
44 | CCCCc1nc2c(N)nc3ccccc3c2n1CCCCNC(=O)N[C@H](C)c1ccccc1 [Example 81] | 0.01 µM | 1 µM
45 | CCCCc1nc2c(N)nc3ccccc3c2n1CCCCNC(=O)N[C@@H](C)c1ccccc1 [Example 82] | 0.01 µM | 0.1 µM
46 | CCCCc1nc2c(N)nc3ccccc3c2n1CCCCNC(=O)NCc1cccc(C)c1 [Example 83] | 0.1 µM | 1 µM
47 | CCCCc1nc2c(N)nc3ccccc3c2n1CCCCNC(=O)NCc1ccc(C)cc1 [Example 84] | 0.1 µM | 1 µM
48 | CCCCc1nc2c(N)nc3ccccc3c2n1CCCCNC(=O)Nc1ccccc1OC [Example 85] | 0.001 µM | 0.1 µM
49 | CCCCc1nc2c(N)nc3ccccc3c2n1CCCCNC(=O)Nc1ccccc1Cl [Example 86] | 0.1 µM | 1 µM
50 | CCCCCCCCNC(=O)NCCCCn1c(CCCC)nc2c(N)nc3ccccc3c21 [Example 87] | 1 µM | > 10 µM
51 | CCCCc1nc2c(N)nc3ccccc3c2n1CCCCNC(=O)N[C@@H]1C[C@H]1c1ccccc1 [Example 88] | 0.1 µM | 1 µM

Source: patent US7157453B2, “Urea substituted imidazoquinolines” (3M Innovation Properties Company, priority 1999, dated 2007)
